How the values were obtained:
[1] = target: T1, recombinant mouse TRPC3b channels (Mus musculus, UniProt Q9QZC1, R524G); assay: Whole-cell patch clamp of CCh-activated current, HEK293 cells expressing TRPC3b; format: cell-based; details: TRPC3b+CCh (100 μM)+genistein 200 μM pre-incubation; Vh=−50 mV; n=6; CCh alone −235.0±28.7 pA
T1 construct: Full length mouse TRPC3 transcripts were obtained by PCR; expressed in transfected cells; host or cells: HEK293 cells, stably transfected (pIRES-DsRed2 vector)
T1 sequence (Q9QZC1 75-910 R524G limits assumed): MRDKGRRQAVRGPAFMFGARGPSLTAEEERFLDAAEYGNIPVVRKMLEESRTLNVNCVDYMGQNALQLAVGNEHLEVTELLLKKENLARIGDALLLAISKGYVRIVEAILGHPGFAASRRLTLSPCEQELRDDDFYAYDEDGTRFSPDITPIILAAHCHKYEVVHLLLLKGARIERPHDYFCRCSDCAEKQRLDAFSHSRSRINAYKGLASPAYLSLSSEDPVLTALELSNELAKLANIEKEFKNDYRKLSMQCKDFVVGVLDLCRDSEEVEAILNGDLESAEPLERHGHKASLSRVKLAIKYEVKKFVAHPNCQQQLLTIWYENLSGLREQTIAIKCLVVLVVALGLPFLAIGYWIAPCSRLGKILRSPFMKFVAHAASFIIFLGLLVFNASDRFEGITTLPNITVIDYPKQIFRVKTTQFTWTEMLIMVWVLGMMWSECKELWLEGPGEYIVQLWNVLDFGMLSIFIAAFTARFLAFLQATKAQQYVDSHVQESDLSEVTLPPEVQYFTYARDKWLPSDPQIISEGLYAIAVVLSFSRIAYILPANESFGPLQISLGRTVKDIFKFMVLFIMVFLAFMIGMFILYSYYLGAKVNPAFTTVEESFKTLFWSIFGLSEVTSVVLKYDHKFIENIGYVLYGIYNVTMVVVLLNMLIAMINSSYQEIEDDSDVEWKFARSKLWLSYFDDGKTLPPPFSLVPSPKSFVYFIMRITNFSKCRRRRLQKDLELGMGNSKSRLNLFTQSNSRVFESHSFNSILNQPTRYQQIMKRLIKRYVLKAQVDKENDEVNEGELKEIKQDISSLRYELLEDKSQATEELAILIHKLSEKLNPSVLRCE
Method: For whole cell patch clamp recordings, HEK293 cells stably expressing recombinant TRPC3 ion channels were grown to 85-95% confluence on a coverslip coated with poly-D-lysine and collagen (both from Sigma-Aldrich, U.S.A.). Recording pipettes were made from borosilicate glass (GC120TF-10, Harvard Apparatus, U.K.). The pipette resistance was at 3-6 MΩ (PC-10, Narishige, Japan). The internal solution had the composition: 130 mM CsCl, 2 mM MgCl2, 10 mM EGTA, 0.3 mM ATP, 0.03 mM GTP, pH at 7.3 adjusted with CsOH. Cells on the coverslip were placed in a microchamber on an inverted microscope (Leica DMIL, Germany) and superfused with HEPES-buffered physiological salt solution (HPSS) containing 120 mM NaCl, 5.4 mM KCl, 2 mM CaCl2, 1.13 mM MgCl2, 10 mM glucose, 20 mM HEPES (pH 7.4) at room temperature.
Whole cell patch clamp recordings were made following a gigaseal, using an Axopatch 200 patch clamp amplifier (Molecular Devices, U.S.A.) controlled by software (pClamp 10.2, Molecular Devices, U.S.A.). Cell capacitance was cancelled and series resistance was compensated by ˜90%. […] Carbachol (used to activate TRPC3 channels via the endogenously expressed M3 AChR) was purchased from Sigma-Aldrich (U.S.A.). DHPG (—(S)-2-amino-2-(3,5-dihydroxyphenyl)acetic acid), a group I mGluR agonist (Schoepp et al. 1994), was purchased from Tocris Bioscience (U.K.). […]

[2] = target: T1, recombinant mouse TRPC3b channels; assay: Indo-1 ratiometric Ca2+ imaging of CCh-activated Ca2+ entry, HEK293 cells expressing TRPC3b; format: cell-based; details: genistein 200 μM pre-incubation, n=5, without genistein 182.7±20.8 nM
Method: The TRPC3-mediated Ca^2+ entry through two distinct activation pathways was assessed by microfluorometric Ca^2+ imaging: i) Ca^2+ entry via the M3 receptor-PLCB-DAG pathway endogenous to HEK293 cells, using Indo-1 as a Ca^2+ indicator; and ii) Ca^2+ entry via mGluR1-PLCB-DAG through co-expression of the mGluR1, using Fluo-4 as a Ca^2+ indicator.
Cells were grown in DMEM media on 18 mm circular coverslips coated with poly-D-lysine (25 μg/ml) and collagen (25 μg/ml) at 1:1 ratio. The cells were washed with HPSS. The coverslips were then incubated with HPSS and 0.1% pluronic acid, along with either 1 μM Indo-1AM or Fluo-4AM Ca^2+ indicator (Invitrogen, U.S.A.) for an hour prior to the experiment. The cells were then placed into HPSS with 5 μM GdCl3 to block endogenous Ca^2+ entry (added to all superfusions). The M3 AChR-mediated TRPC3 activation was achieved by bath application of carbachol. The mGluR1-mediated TRPC3 activation was achieved by bath application of DHPG.
For Indo-1 experiments, the cells were mounted on a Nikon TMD inverted microscope fitted with an Indo-1 filter set (Nikon Indo-1 filter cube, 485 nm/DM455 nm/405 nm) and illuminated with a mercury lamp. Cells were excited at 350 nm, with dual emission of the field was detected at 410 nm and 480 nm using two photomultiplier tubes, and the ratioed emission was determined in real-time using in-house software. […]

- mean peak CCh-activated whole-cell inward current [1]: −24.8±9.7 pA
- peak [Ca2+] on return of extracellular Ca2+ (CCh-activated Ca2+ entry) [2]: 86.7 ± 8.7 nM
Compound: O=c1c(-c2ccc(O)cc2)coc2cc(O)cc(O)c12 [genistein, 4′, 5,7-trihydroxyisoflavone]

From patent US20170202932A1, “METHODS FOR INHIBITING NEURON APOPTOSIS AND NECROSIS” (NEWSOUTH INNOVATIONS PTY LIMITED, priority 2012, published 2017)
